Measurements as given in ChEMBL document CHEMBL1140998, “RNA bandages for photoregulating in vitro protein synthesis” (Bioorg Med Chem Lett, 2008).
The source made the active and inactive calls. No cut-off for these calls is given here.

Tests used:
Aequorea victoria [1] = test: Binding affinity to Aequorea victoria GFP mRNA (1-26) assessed as melting temperature
Aequorea victoria [2] = test: Binding affinity to Aequorea victoria GFP mRNA (1-26) assessed as change in melting temperature
Aequorea victoria [3] = test: Blockade of Aequorea victoria GFP mRNA (1-26) translation activity assessed as reduction in protein expression level at a drug:mRNA molar ratio of 2:1 measured prior to UV irradiation by gel electrophoresis; set-up: scale not given: the % may be the effect or the level left
Aequorea victoria [4] = test: Blockade of Aequorea victoria GFP mRNA (1-26) translation activity assessed as reduction in protein expression level at a drug:mRNA molar ratio of 2:1 measured after UV irradiation by gel electrophoresis
Aequorea victoria [5] = test: Blockade of Aequorea victoria GFP mRNA (1-26) translation activity assessed as reduction in protein expression level at a drug:mRNA molar ratio of 12:1 measured prior to UV irradiation by gel electrophoresis; set-up: scale not given: the % may be the effect or the level left
Aequorea victoria [6] = test: Blockade of Aequorea victoria GFP mRNA (1-26) translation activity assessed as reduction in protein expression level measured after UV irradiation at a drug:mRNA molar ratio of 12:1 measured after UV irradiation by gel electrophoresis

| Tm (Aequorea victoria [1]) [°C] | ΔTm (Aequorea victoria [2]) [°C] | Activity (Aequorea victoria [3]) [%] | Activity (Aequorea victoria [4]) | Activity (Aequorea victoria [5]) [%] | Activity (Aequorea victoria [6]) | Structure (SMILES) |
| --- | --- | --- | --- | --- | --- | --- |
| 72.4 | 20 | 100 | Active |  |  | CC(OC(=O)NCCCCCCOC[C@H]1O[C@@H](n2ccc(N)nc2=O)[C@H](O)[C@@H]1OP(=O)(O)OC[C@H]1O[C@@H](n2ccc(=O)[nH]c2=O)[C@H](O)[C@@H]1OP(=O)(O)OC[C@H]1O[C@@H](n2cnc3c(N)ncnc32)[C@H](O)[C@@H]1OP(=O)(O)OC[C@H]1O[C@@H](n2cnc3c(=O)[nH]c(N)nc32)[C@H](O)[C@@H]1OP(=O)(O)OC[C@H]1O[C@@H](n2ccc(N)nc2=O)[C@H](O)[C@@H]1OP(=O)(O)OC[C@H]1O[C@@H](n2ccc(N)nc2=O)[C@H](O)[C@@H]1OP(=O)(O)OC[C@H]1O[C@@H](n2cnc3c(N)ncnc32)[C@H](O)[C@@H]1OP(=O)(O)OC[C@H]1O[C@@H](n2cnc3c(=O)[nH]c(N)nc32)[C@H](O)[C@@H]1OC[C@H]1O[C@@H](n2ccc(N)nc2=O)[C@H](O)[C@@H]1OC[C@H]1O[C@@H](n2ccc(=O)[nH]c2=O)[C@H](O)[C@@H]1O)c1cc(CN2C(=O)CC(SCCCO[C@H]3[C@@H](O)[C@H](n4ccc(=O)[nH]c4=O)O[C@@H]3COP(=O)(O)O[C@H]3[C@@H](O)[C@H](n4cnc5c(=O)[nH]c(N)nc54)O[C@@H]3COP(=O)(O)O[C@H]3[C@@H](O)[C@H](n4ccc(=O)[nH]c4=O)O[C@@H]3COP(=O)(O)O[C@H]3[C@@H](O)[C@H](n4cnc5c(=O)[nH]c(N)nc54)O[C@@H]3COP(=O)(O)O[C@H]3[C@@H](O)[C@H](n4cnc5c(=O)[nH]c(N)nc54)O[C@@H]3COP(=O)(O)O[C@H]3[C@@H](O)[C@H](n4ccc(=O)[nH]c4=O)O[C@@H]3COP(=O)(O)O[C@H]3[C@@H](O)[C@H](n4cnc5c(N)ncnc54)O[C@@H]3COP(=O)(O)O[C@H]3[C@@H](O)[C@H](n4ccc(N)nc4=O)O[C@@H]3CO[C@H]3[C@@H](O)[C@H](n4ccc(N)nc4=O)O[C@@H]3CO[C@H]3[C@@H](O)[C@H](n4cnc5c(=O)[nH]c(N)nc54)O[C@@H]3CO)C2=O)ccc1[N+](=O)[O-] (some centres not stated) |
| 62.2 | 32 |  |  | 10 | Active | CC(OC(=O)NCCCCCCOC[C@H]1O[C@@H](n2ccc(N)nc2=O)[C@H](O)[C@@H]1OP(=O)(O)OC[C@H]1O[C@@H](n2ccc(=O)[nH]c2=O)[C@H](O)[C@@H]1OP(=O)(O)OC[C@H]1O[C@@H](n2cnc3c(N)ncnc32)[C@H](O)[C@@H]1OP(=O)(O)OC[C@H]1O[C@@H](n2cnc3c(=O)[nH]c(N)nc32)[C@H](O)[C@@H]1OP(=O)(O)OC[C@H]1O[C@@H](n2ccc(N)nc2=O)[C@H](O)[C@@H]1OP(=O)(O)OC[C@H]1O[C@@H](n2ccc(N)nc2=O)[C@H](O)[C@@H]1OP(=O)(O)OC[C@H]1O[C@@H](n2cnc3c(N)ncnc32)[C@H](O)[C@@H]1OP(=O)(O)OC[C@H]1O[C@@H](n2cnc3c(=O)[nH]c(N)nc32)[C@H](O)[C@@H]1OC[C@H]1O[C@@H](n2ccc(N)nc2=O)[C@H](O)[C@@H]1OC[C@H]1O[C@@H](n2ccc(=O)[nH]c2=O)[C@H](O)[C@@H]1O)c1cc(CN2C(=O)CC(SCCCO[C@H]3[C@@H](O)[C@H](n4ccc(=O)[nH]c4=O)O[C@@H]3COP(=O)(O)O[C@H]3[C@@H](O)[C@H](n4cnc5c(=O)[nH]c(N)nc54)O[C@@H]3COP(=O)(O)O[C@H]3[C@@H](O)[C@H](n4ccc(=O)[nH]c4=O)O[C@@H]3COP(=O)(O)O[C@H]3[C@@H](O)[C@H](n4cnc5c(=O)[nH]c(N)nc54)O[C@@H]3COP(=O)(O)O[C@H]3[C@@H](O)[C@H](n4cnc5c(=O)[nH]c(N)nc54)O[C@@H]3COP(=O)(O)O[C@H]3[C@@H](O)[C@H](n4ccc(=O)[nH]c4=O)O[C@@H]3COP(=O)(O)O[C@H]3[C@@H](O)[C@H](n4cnc5c(N)ncnc54)O[C@@H]3COP(=O)(O)O[C@H]3[C@@H](O)[C@H](n4ccc(N)nc4=O)O[C@@H]3CO)C2=O)ccc1[N+](=O)[O-] (some centres not stated) |
| 81.2 | 24 | 100 | Active |  |  | CC(OC(=O)NCCCCCCOC[C@H]1O[C@@H](n2ccc(N)nc2=O)[C@H](O)[C@@H]1OP(=O)(O)OC[C@H]1O[C@@H](n2ccc(N)nc2=O)[C@H](O)[C@@H]1OP(=O)(O)OC[C@H]1O[C@@H](n2cnc3c(N)ncnc32)[C@H](O)[C@@H]1OP(=O)(O)OC[C@H]1O[C@@H](n2cnc3c(=O)[nH]c(N)nc32)[C@H](O)[C@@H]1OP(=O)(O)OC[C@H]1O[C@@H](n2ccc(N)nc2=O)[C@H](O)[C@@H]1OP(=O)(O)OC[C@H]1O[C@@H](n2ccc(=O)[nH]c2=O)[C@H](O)[C@@H]1OP(=O)(O)OC[C@H]1O[C@@H](n2ccc(=O)[nH]c2=O)[C@H](O)[C@@H]1OP(=O)(O)OC[C@H]1O[C@@H](n2cnc3c(=O)[nH]c(N)nc32)[C@H](O)[C@@H]1OP(=O)(O)OC[C@H]1O[C@@H](n2cnc3c(=O)[nH]c(=O)[nH]c32)[C@H](O)[C@@H]1OP(=O)(O)OC[C@H]1O[C@@H](n2cnc3c(=O)[nH]c(=O)[nH]c32)[C@H](O)[C@@H]1OP(=O)(O)OC[C@H]1O[C@@H](n2ccc(=O)[nH]c2=O)[C@H](O)[C@@H]1OP(=O)(O)OC[C@H]1O[C@@H](n2ccc(N)nc2=O)[C@H](O)[C@@H]1O)c1cc(CN2C(=O)CC(SCCCO[C@H]3[C@@H](O)[C@H](n4cnc5c(=O)[nH]c(N)nc54)O[C@@H]3COP(=O)(O)O[C@H]3[C@@H](O)[C@H](n4cnc5c(N)ncnc54)O[C@@H]3COP(=O)(O)O[C@H]3[C@@H](O)[C@H](n4ccc(=O)[nH]c4=O)O[C@@H]3COP(=O)(O)O[C@H]3[C@@H](O)[C@H](n4ccc(N)nc4=O)O[C@@H]3CO[C@@H]3[C@H](O)[C@@H](COP(=O)(O)O[C@H]4[C@@H](O)[C@H](n5cnc6c(=O)[nH]c(N)nc65)O[C@@H]4COP(=O)(O)O[C@H]4[C@@H](O)[C@H](n5ccc(=O)[nH]c5=O)O[C@@H]4COP(=O)(O)O[C@H]4[C@@H](O)[C@H](n5cnc6c(=O)[nH]c(N)nc65)O[C@@H]4COP(=O)(O)O[C@H]4[C@@H](O)[C@H](n5cnc6c(=O)[nH]c(N)nc65)O[C@@H]4COP(=O)(O)O[C@H]4[C@@H](O)[C@H](n5ccc(=O)[nH]c5=O)O[C@@H]4COP(=O)(O)O[C@H]4[C@@H](O)[C@H](n5cnc6c(N)ncnc65)O[C@@H]4COP(=O)(O)O[C@H]4[C@@H](O)[C@H](n5ccc(N)nc5=O)O[C@@H]4CO)O[C@H]3n3ccc(=O)[nH]c3=O)C2=O)ccc1[N+](=O)[O-] (some centres not stated) |
